Data published in patent publication US4028402A, “Biguanide salts” (Hoffmann-La Roche Inc., priority 1974, dated 1977).
Counter-ions that a name gives are not always drawn. Like-named read-outs stand apart in the source and are kept apart here.

How the values were obtained:
blood glucose = conditions: single oral dose, 4 h after administration
Description: (§1) Four hours after administration of the test substances, the animals were decapitated. After deproteinization of the mixed blood with perchloric acid, glucose concentration was determined photometrically by the hexokinase method. Lactate concentration was determined photometrically with lactate dehydrogenase.

blood lactate = conditions: single oral dose, 4 h after administration
Description: as §1

in vivo [1] = conditions: mouse, po, single daily oral administration for 10 days, 24 hours after the last administration
in vivo [2] = conditions: rat, po, single daily oral administration for 10 days, 24 hours after the last administration
Mouse = conditions: single daily oral administration for 10 days, 24 hours after the last administration
Rat = conditions: single daily oral administration for 10 days, 24 hours after the last administration
[3] = 100 μmol/kg, listed as Bis-dichloroacetate of n-butylbiguanide
[4] = 300 μmol/kg, listed as Bis-dichloroacetate of n-butylbiguanide
[5] = 1000 μmol/kg, listed as Bis-dichloroacetate of n-butylbiguanide
[6] = 100 μmol/kg, listed as Hydrochloride of n-butylbiguanide
[7] = 300 μmol/kg, listed as Hydrochloride of n-butylbiguanide
[8] = 1000 μmol/kg, listed as Hydrochloride of n-butylbiguanide

Row | SMILES | Blood glucose, % in controls (blood glucose; [3]) | Blood glucose, % in controls (blood glucose; [4]) | Blood glucose, % in controls (blood glucose; [5]) | Blood lactate, % in controls (blood lactate; [3]) | Blood lactate, % in controls (blood lactate; [4]) | Blood lactate, % in controls (blood lactate; [5]) | LD50 (in vivo [1]) | LD50 (in vivo [2]) | Blood glucose, % in controls (blood glucose; [6]) | Blood glucose, % in controls (blood glucose; [7]) | Blood glucose, % in controls (blood glucose; [8]) | Blood lactate, % in controls (blood lactate; [6]) | Blood lactate, % in controls (blood lactate; [7]) | Blood lactate, % in controls (blood lactate; [8]) | LD50 (Mouse) | LD50 (Rat)
1 | CCCCNC(=N)NC(=N)N [n-butylbiguanide bis-dichloroacetate, 1-butylbiguanide bis-(dichloroacetate)] | 69 % in controls | 62 % in controls | 37 % in controls | 91 % in controls | 100 % in controls | 106 % in controls | 1130 ± 180 µmol/kg | 1200 ± 200 µmol/kg | – | – | – | – | – | – | – | –
2 | CCCCNC(=N)NC(=N)N [n-butylbiguanide hydrochloride, 1-butylbiguanide.HCl] | – | – | – | – | – | – | – | – | 76 % in controls | 68 % in controls | 35 % in controls | 123 % in controls | 114 % in controls | 254 % in controls | 1.37 ± 0.22 mmol/kg | 0.66 ± 0.10 mmol/kg
